Data as given in patent US7741360B2, “Bi-aryl or aryl-heteroaryl substituted indoles” (AstraZeneca AB, priority 2006, dated 2010).

Target: T1, rhCRTh2 (Homo sapiens, UniProt Q9Y5Y4)
T1 construct: expressed in transfected cells; host or cells: HEK cells (membrane preparation)
T1 sequence (Q9Y5Y4 1-395): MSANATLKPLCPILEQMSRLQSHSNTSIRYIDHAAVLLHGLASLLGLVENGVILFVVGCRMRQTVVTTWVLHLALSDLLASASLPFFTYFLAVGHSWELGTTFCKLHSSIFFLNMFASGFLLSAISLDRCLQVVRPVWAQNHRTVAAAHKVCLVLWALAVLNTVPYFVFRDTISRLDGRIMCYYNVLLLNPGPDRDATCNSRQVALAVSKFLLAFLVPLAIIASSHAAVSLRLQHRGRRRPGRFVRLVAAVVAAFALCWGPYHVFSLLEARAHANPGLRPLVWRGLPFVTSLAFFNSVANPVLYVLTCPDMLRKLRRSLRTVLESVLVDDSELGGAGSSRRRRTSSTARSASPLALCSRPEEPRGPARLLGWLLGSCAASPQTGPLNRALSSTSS
Assay: Ligand binding assay, [3H]PGD2 SPA on HEK cell membranes
Conditions: [3H]PGD2 displacement, membranes of HEK cells expressing rhCRTh2/Gα16, SPA beads, RT 2 hours
Procedure: [^3H]PGD2 was purchased from Perkin Elmer Life Sciences with a specific activity of 100-210 Ci/mmol. All other chemicals were of analytical grade.
HEK cells expressing rhCRTh2/Gα16 were routinely maintained in DMEM containing 10% Foetal Bovine Serum (HyClone), 1 mg/ml geneticin, 2 mM L-glutamine and 1% non-essential amino acids. For the preparation of membranes, the adherent transfected HEKcells were grown to confluence in two layer tissue culture factories (Fisher, catalogue number TKT-170-070E). Maximal levels of receptor expression were induced by addition of […] sodium butyrate for the last 18 hours of culture. […] The final pellet was re-suspended in 4 ml of membrane homogenisation buffer per cell factory used and the protein content determined. […]
All assays were performed in Corning clear bottomed, white 96-well NBS plates (Fisher). […] (The optimum coating concentrations were determined for each batch of membranes) The beads were pelleted by centrifugation (800×g for 7 minutes at 4° C.), washed once with assay buffer (50 mM HEPES pH 7.4 containing 5 mM magnesium chloride) and finally re-suspended in assay buffer at a bead concentration of 10 mg/ml. […]

- IC50: 20 nM
SMILES: Cc1c(Sc2ccc(-c3ccccc3)cc2)c2cc(F)ccc2n1CC(=O)O [Example 1, [3-(Biphenyl-4-ylsulfanyl)-5-fluoro-2-methyl-indol-1-yl]-acetic acid]
